# Measured values reported in patent US6903114B2, “Derivatives of naphthalene with COMT inhibiting activity” (Orion Corporation, priority 2000, dated 2005).
# Target: T1, S-COMT enzyme (Homo sapiens, UniProt P21964)
# T1 sequence (P21964 1-221 isoform P21964-2): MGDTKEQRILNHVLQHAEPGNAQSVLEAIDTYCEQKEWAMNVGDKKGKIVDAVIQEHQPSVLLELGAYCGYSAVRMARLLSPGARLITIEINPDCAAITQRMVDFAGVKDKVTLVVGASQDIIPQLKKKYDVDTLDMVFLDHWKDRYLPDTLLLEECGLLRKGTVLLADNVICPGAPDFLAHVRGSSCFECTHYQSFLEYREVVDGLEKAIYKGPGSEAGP
# Test: Determination of COMT activity (IC50)
# Format: biochemical
# Conditions: S-COMT about 30 nM, 3 mM dopamine substrate, 0.05 mM AdoMet, 5 mM MgCl2, pH 7.4, 37° C., 15 min; HPLC
# Method: EXPERIMENT I: Determination of COMT activity (IC50)
# The determination of IC50 was performed by measuring the COMT activity in a test sample which contained S-COMT enzyme (about 30 nM), 3 mM dopamine (as the substrate of COMT), 5 mM magnesium chloride, 0.05 mM S-adenosyl-L-methionine (AdoMet) and a test compound of the invention at various concentrations in 0.1 M phosphate buffer, pH 7.4, at 37° C.
# The reaction in the test sample was initiated by adding the dopamine substrate to the sample mixture and, after incubation for 15 min at 37° C., the reaction was stopped with 4 M perchloric acid and stabilized further 10 min in ice bath. Thereafter the precipitated proteins were removed by centrifugation (4000×G for 10 min). The activity of COMT enzyme was measured by determining the concentration of the reaction products, 3-methyldopamine and 4-methyldopamine, by HPLC. The results were calibrated with 3-methyldopamine standards. See also T. Lotta et al., Biochemistry, vol.34(13), 1995, p.4204. The IC50 value is the concentration of the test compound which causes a 50% decrease in COMT activity.
row,IC50,SMILES
1,0.14 µM,"O=[N+]([O-])c1c(O)c(O)c(Br)c2ccncc12 [Example 15, 5-Bromo-6,7-dihydroxy-8-nitro-isoquinolinium; Bromide]"
2,0.08 µM,"O=C(c1ccccc1)c1ccc2c([N+](=O)[O-])c(O)c(O)cc2c1 [Example 3, (6,7-Dihydroxy-5-nitro-naphthalen-2-yl)-phenyl-methanone]"
3,0.03 µM,"O=[N+]([O-])c1c(O)c(O)cc2ccccc12 [Example 1, 1-Nitronaphthalene-2,3-diol]"
4,0.025 µM,"CCCN(CCC)S(=O)(=O)c1ccc2c([N+](=O)[O-])c(O)c(O)cc2c1 [Example 11, 6,7-Dihydroxy-5-nitro-naphthalene-2-sulfonic Acid Dipropylamide]"
5,0.045 µM,"CC(C)Cc1ccc2c([N+](=O)[O-])c(O)c(O)cc2c1 [Example 5, 6-Isobutyl-1-nitro-naphthalene-2,3-diol]"
6,0.08 µM,"CCCCCCC(=O)c1ccc2c([N+](=O)[O-])c(O)c(O)cc2c1 [Example 9, 1-(6,7-Dihydroxy-5-nitro-naphthalen-2-yl)-heptan-1-one]"
7,0.1 µM,"N#Cc1c(O)c(O)cc2ccccc12 [Example 13, 2,3-Dihydroxy-naphthalene-1-carbonitrile]"
8,0.025 µM,"CC(C)C(=O)c1ccc2c([N+](=O)[O-])c(O)c(O)cc2c1 [Example 4, 1-(6,7-Dihydroxy-5-nitro-naphthalen-2-yl)-2-methyl-propan-1-one]"
9,0.2 µM,"O=Cc1c(O)c(O)cc2ccccc12 [Example 8, 2,3-Dihydroxy-naphthalene-1-carbaldehyde]"
10,0.015 µM,"CN1CCN(C(=O)c2ccc3c([N+](=O)[O-])c(O)c(O)cc3c2)CC1 [Example 14, (6,7-Dihydroxy-5-nitro-naphthalen-2-yl)-(4-methyl-piperazin-1-yl)-methanone]"
11,0.03 µM,"O=C(O)c1ccc2c([N+](=O)[O-])c(O)c(O)cc2c1 [Example 7, 6,7-Dihydroxy-5-nitro-naphthalene-2-carboxylic Acid]"

row,SMILES,IC50
1,"O=[N+]([O-])c1ccc2c([N+](=O)[O-])c(O)c(O)cc2c1 [Example 10, 1,6-Dinitro-naphthalene-2,3-diol]",0.015 µM
